Laboratory results as given in patent US20260125649A1, “MEDIUM COMPOSITION AND METHOD FOR CULTURING MESENCHYMAL STEM CELLS” (ACADEMIA SINICA, priority 2018, published 2026).

Columns and labels:
Assay type in all cases: cell-based, human
[1] = tested on: MSCs; experiment: Cell cycle progression by flow cytometry with PI staining; conditions: inhibitor pretreatment (AG1478 25 μM, 30 min; WP1066 5 μM), then EpEX 18 h
Procedure: Phospho-EGFR (Tyr845) was detected by Western blotting. […] After treatment, cell cycle progression was investigated by flow cytometry with PI staining. Fraction of cells in each phase (G1, S, G2/M) of the cell cycle was evaluated. Cells that expressed EGFR shRNA or shLuc were treated with EpEX for 18 h. After treatment, cell cycle progression was investigated by flow cytometry with PI staining. Fraction of cells in each phase (G1, S, G2/M) of the cell cycle was evaluated. […] The protein expression of cell cycle regulators (cyclin D1, cyclin D2, cyclin E1) and pluripotency factors (Oct4, Sox2, c-Myc, Lin28) was examined by Western blotting. MSCs expressing EGFR shRNA were stimulated by EpEX. After treatment, the protein expression of cell cycle regulators (cyclin D1, cyclin E1, CDK4 and CDK9) and pluripotency factors (Oct4, in Sox2, c-Myc, and Lin 28) was examined by Western blotting. […] After treatment, the gene expression of pluripotency factors (Oct4, Sox2, c-Myc, Lin28 and EpCAM) was examined by qPCR.
After treatment, the protein levels of total STAT3 and phospho-STAT3 (Tyr705) were examined by Western blotting. […] Cell cycle progression was investigated by flow cytometry with PI staining. Fraction of cells in each phase (G1, S, G2/M) of the cell cycle was evaluated. […] Fraction of cells in each phase (G1, S, G2/M) of the cell cycle was evaluated. […]

[2] = tested on: cyclin A2, cyclin D1, cyclin D2, cyclin D3, cyclin E1, CDK4, CDK9, Oct4, Sox2, c-Myc, Lin28; experiment: Western blotting of cell cycle regulators and pluripotency factors in MSCs; conditions: pretreatment, then EpEX
Procedure: The proliferation of MSCs was examined by measuring doubling time. MSCs were treated with EpEX (3 μg/mL) for 24 and 48 h. Cell number was counted and then doubling time was calculated. MSCs were treated with EpEX (3 μg/mL) for the indicated times. After treatment, protein expression of cell cycle regulators (cyclin D1, cyclin D2, cyclin D3, cyclin E1, CDK4 and CDK9) and pluripotency factors (Oct4, Sox2, c-Myc, and Lin28) was examined by Western blotting.
Phospho-EGFR (Tyr845) was detected by Western blotting. […] After treatment, cell cycle progression was investigated by flow cytometry with PI staining. Fraction of cells in each phase (G1, S, G2/M) of the cell cycle was evaluated. Cells that expressed EGFR shRNA or shLuc were treated with EpEX for 18 h. After treatment, cell cycle progression was investigated by flow cytometry with PI staining. Fraction of cells in each phase (G1, S, G2/M) of the cell cycle was evaluated. […]
After treatment, the protein levels of total STAT3 and phospho-STAT3 (Tyr705) were examined by Western blotting. […] Fraction of cells in each phase (G1, S, G2/M) of the cell cycle was evaluated. […] Fraction of cells in each phase (G1, S, G2/M) of the cell cycle was evaluated. […]
The expression of let-7 was detected by qPCR. […] The expression of let-7 was detected by qPCR. […]

[3] = tested on: STAT3 (Tyr705); experiment: STAT3 phosphorylation by Western blotting
Procedure: After treatment, the protein levels of total STAT3 and phospho-STAT3 (Tyr705) were examined by Western blotting. […] Cell cycle progression was investigated by flow cytometry with PI staining. Fraction of cells in each phase (G1, S, G2/M) of the cell cycle was evaluated. Cells expressing STAT3 shRNA were treated with EpEX for 18 h, after which cell cycle progression was investigated by flow cytometry with PI staining. Fraction of cells in each phase (G1, S, G2/M) of the cell cycle was evaluated. […] The protein levels of cell cycle regulators (cyclin D1, cyclin D2, cyclin E1, CDK4 and CDK9) and pluripotency factors (Oct4, Sox2, c-Myc, Lin28) were examined by Western blotting. MSCs expressing STAT3 shRNA or shLuc were stimulated with EpEX. After treatment, the protein levels of cell cycle regulators (cyclin D1, cyclin D2, cyclin E1, CDK4 and CDK9) and pluripotency factors (Oct4, Sox2, c-Myc, and Lin 28) were examined by Western blotting. […] After treatment, the gene expression of pluripotency factors (Oct4, Sox2, c-Myc, Lin28 and EpCAM) was examined by qPCR.
FIG. 8. EpEX and EGF induce the phosphorylation of EGFR and STAT3. […] The phosphorylation of EGFR (Tyr845) and STAT3 (Tyr705) were examined by Western blotting with specific antibodies.
Western blotting was performed as previously described (Takahashi et al., 2003). […]

[4] = tested on: TACE (Ser435), PS2 (Ser327), ERK1/2; experiment: Western blotting of phosphorylation of TACE, Presenilin 2 and ERK1/2; conditions: addition of EGFR inhibitor
Procedure: FIG. 9. EpEX induces the phosphorylation and activity of TACE and γ-secretase. MSCs were stimulated by EpEX for the indicated times, and the activity of TACE and γ-secretase were detected. MSCs were stimulated by EpEX (3 μg/mL) for the indicated times. Western blot analysis was performed to detect the phosphorylation of TACE and Presenilin 2.
FIG. 10. EpEX and EGF induce the phosphorylation of TACE, ERK1/2 and PS2. MSCs were treated with either EGF, EpEX, or co-treated with EGF and EpEX for 5 min. The phosphorylation of ERK1/2 was examined by Western blotting with specific antibodies. […] The phosphorylation of ERK1/2, TACE (Ser435), PS2 (Ser327) were examined by Western blotting with specific antibodies.
Western blotting was performed as previously described (Takahashi et al., 2003). Cells were lysed in lysis buffer (150 mM NaCl, 50 mM Tris-HCl (pH 7.4), 1% Nonidet P-40), containing a protease inhibitor mix (Roche Applied Science). Nuclear fractions and cytoplasmic fractions were separated by the Nuclear/Cytosol Fractionation Kit according to the manufacturer's instructions (BioVision Inc., Milpitas, CA, USA). Protein samples were separated by SDS-PAGE under denaturing conditions, and transferred to a PVDF membrane (Millipore). […]

Compound	effect on EpEX-induced cell cycle progression [1]	effect on EpEX-induced protein expression of cell cycle regulators and pluripotency markers [2]	effect on activation of STAT3 by either EGF or EpEX ([3]; pretreatment with AG1478)	effect on EpEX-induced phosphorylation of TACE [4]	effect on EpEX-induced phosphorylation of presenilin-2 [4]	STAT3 phosphorylation ([3]; MSCs treated with the substance)
C[C@H](NC(=O)/C(C#N)=C/c1cccc(Br)n1)c1ccccc1 [WP1066, reference compound]	attenuated	blocked	–	–	–	–
COc1cc2ncnc(Nc3cccc(Cl)c3)c2cc1OC [AG1478, reference compound]	attenuated	abolished	can attenuate	can be abolished	can be abolished	–
EGF: cognate ligand for EGFR	–	–	–	–	–	can induce
